Measured values published in paper PMC4229100, “A Two-Step Strategy to Enhance Activity of Low Potency Peptides” (PLoS ONE, 2014).
Where two headings read alike, the source gives them in different places. Ends that are not written are not given here. Peptide text beside a SMILES is read from it. * marks the point of attachment. PEG8 = NCCOCCOCCOCCOCCOCCOCCOCCOCCC(=O)O; Palmitoyl = CCCCCCCCCCCCCCCC(=O)*

Key:
CCK2R [1] = target: T1, CCK2R (Homo sapiens, UniProt P32239); experiment: Antagonist inhibition of agonist-induced CCK2R signaling (SRE-luciferase, HEK293); assay type: cell-based; design: expressed in transfected cells; host or cells: HEK293
T1 sequence (P32239 1-447): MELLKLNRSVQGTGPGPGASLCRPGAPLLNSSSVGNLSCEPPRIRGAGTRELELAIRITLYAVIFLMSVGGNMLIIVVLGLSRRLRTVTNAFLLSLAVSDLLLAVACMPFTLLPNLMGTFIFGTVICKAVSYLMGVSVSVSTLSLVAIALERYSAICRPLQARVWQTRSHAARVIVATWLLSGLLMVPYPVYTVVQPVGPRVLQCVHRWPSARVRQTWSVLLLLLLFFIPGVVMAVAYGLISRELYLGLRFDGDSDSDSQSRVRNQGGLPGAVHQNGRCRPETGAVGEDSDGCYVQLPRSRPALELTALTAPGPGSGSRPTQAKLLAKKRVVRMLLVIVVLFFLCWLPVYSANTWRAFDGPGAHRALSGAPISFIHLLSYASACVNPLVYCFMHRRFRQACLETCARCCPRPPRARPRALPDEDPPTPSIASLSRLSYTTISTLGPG
Method: Figure 6 YM022 inhibits CCK2R signaling induced by tethered CCK4-Gly, soluble CCK4-Gly, or lipidated CCK4-Gly. A) YM022 blocks tethered CCK4-Gly mediated CCK2R signaling. […] Four hours following transfection, cells were with treated with increasing concentrations of YM022 for 20 hours. […] B) YM022 blocks s-CCK4-Gly-COOH and l-CCK4-Gly-COOH mediated activation of CCK2R. HEK293 cells were transfected as indicated above. Twenty hours after transfection, cells were with treated with increasing concentrations of YM022 together with either 10 µM of l-CCK4-Gly-COOH or s-CCK4-Gly-COOH.

NK1R [2] = target: T2, NK1R (Homo sapiens, UniProt P25103)
Method: (§1) Human embryonic kidney cells (HEK293) were maintained at 37°C in a humidified 5% CO2 atmosphere and cultured with Dulbecco’s modified Eagle’s medium (Invitrogen, Chicago, IL) containing 10% fetal bovine serum, 100 U/mL penicillin, and 100 µg/mL streptomycin. Cells were seeded into 96-well plates and grown to ∼80% confluence. Cells were transfected for 24 hours using polyethylenimine (Sigma, Atlanta, GA) in serum-free medium [17] with cDNAs encoding, a) tethered ligand (where noted), b) 3 ng of indicated receptor, c) 25 ng of a 5X-SRE-Luc-pest (pGL4.33), a luciferase reporter construct under the control of a serum response element (Promega, Madison, WI), and d) 10 ng of β-galactosidase to control for transfection efficiency.
(§2) The expression of membrane tethered Substance P, CCK4, and CCK4-Gly was assessed by ELISA using an antibody directed to the myc epitope tag within the MTL cDNA construct [8].
(§3) Tethered ligand induced signaling was assessed in HEK293 cells 24 hours after transfection. For soluble and lipidated peptides, 20 hours following transfection, cells were stimulated in serum-free medium for an additional 4 hours. […] With tethered ligands, antagonists were added 4 hours after transfection; activity was assessed following an additional 20 hour incubation. Quantification of luciferase and β-galactosidase activities were performed as previously described [6]. Data were analyzed by nonlinear curve fitting using Graph Pad Prism 5.0 software.
(§4) HEK293 cells were transiently cotransfected for 24 hours with cDNAs encoding: the designated NK receptor subtype, a 5X-SRE-Luc-pest reporter construct (pGL4.33), tethered ligand (for MTL assays, left panels), and a β-galactosidase gene to control for transfection variability. For assessment of SMAL induced signaling, cells were stimulated with ligand for an additional 4 hours. […] Data represent the mean ± SEM from 3 independent experiments, each performed in triplicate.

NK2R = target: T3, NK2R (Homo sapiens, UniProt P21452); experiment: SRE-luciferase reporter agonist assay in HEK293 cells transfected with NK2R; settings: HEK293, SRE-Luc; relative to 1 µM s-SubP-NH2; MTL coexpressed 24 hours, peptides 4 hours
T3 sequence (P21452 1-398): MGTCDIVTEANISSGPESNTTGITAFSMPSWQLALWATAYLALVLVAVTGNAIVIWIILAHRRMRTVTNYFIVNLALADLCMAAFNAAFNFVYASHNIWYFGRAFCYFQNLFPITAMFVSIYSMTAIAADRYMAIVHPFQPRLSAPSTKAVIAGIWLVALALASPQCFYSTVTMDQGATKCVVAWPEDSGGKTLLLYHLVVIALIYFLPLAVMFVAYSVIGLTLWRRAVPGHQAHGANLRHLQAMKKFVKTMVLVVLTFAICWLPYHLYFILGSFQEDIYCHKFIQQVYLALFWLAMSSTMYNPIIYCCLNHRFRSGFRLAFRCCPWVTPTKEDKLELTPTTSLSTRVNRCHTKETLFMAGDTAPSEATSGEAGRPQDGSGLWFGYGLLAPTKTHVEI
Method: as §1, §2
(§5) Tethered ligand induced signaling was assessed in HEK293 cells 24 hours after transfection. […] With tethered ligands, antagonists were added 4 hours after transfection; activity was assessed following an additional 20 hour incubation. Quantification of luciferase and β-galactosidase activities were performed as previously described [6]. Data were analyzed by nonlinear curve fitting using Graph Pad Prism 5.0 software. […]

NK1R [3] = target: T2, NK1R; experiment: cell-based
Method: as §1, §2, §3, §4

NK3R = target: T4, NK3R (Homo sapiens, UniProt P29371); experiment: SRE-luciferase reporter agonist assay in HEK293 cells transfected with NK3R; settings: HEK293, SRE-Luc; relative to 1 µM s-SubP-NH2; MTL coexpressed 24 hours, peptides 4 hours
T4 sequence (P29371 1-465): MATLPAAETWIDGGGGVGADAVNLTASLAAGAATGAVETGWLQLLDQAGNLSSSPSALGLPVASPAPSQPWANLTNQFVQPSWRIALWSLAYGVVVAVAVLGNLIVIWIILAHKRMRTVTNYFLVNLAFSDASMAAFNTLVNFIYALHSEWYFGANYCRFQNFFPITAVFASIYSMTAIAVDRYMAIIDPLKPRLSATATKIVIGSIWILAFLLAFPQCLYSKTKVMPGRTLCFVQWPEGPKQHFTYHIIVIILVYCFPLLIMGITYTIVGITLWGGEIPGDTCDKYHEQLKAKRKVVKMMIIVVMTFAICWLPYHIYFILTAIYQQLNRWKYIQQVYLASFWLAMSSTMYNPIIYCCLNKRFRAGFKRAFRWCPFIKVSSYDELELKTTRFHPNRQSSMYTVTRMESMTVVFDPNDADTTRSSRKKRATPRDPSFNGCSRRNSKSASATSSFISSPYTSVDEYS
Method: as §1, §2, §5

CCK2R [4] = target: T1, CCK2R; experiment: SRE-luciferase reporter agonist assay in HEK293 cells transfected with CCK2R; settings: for CCK2R mediated signaling (agonist activity, in words): HEK293, SRE-Luc, relative to 10 µM s-CCK4-NH2, MTL coexpressed 24 hours, peptides 4 hours
Method: as §1
The CCK2 receptor was cloned as previously reported [18]; the CCK1R cDNA was PCR amplified based on a published sequence [19]. Each receptor cDNA encoding the human sequence was subcloned into pcDNA1.1. […] The nucleotide sequences of all receptor and tethered ligand coding regions were confirmed by automated DNA sequencing and analyzed using Vector NTI software (Invitrogen, Chicago, IL). The expression of membrane tethered Substance P, CCK4, and CCK4-Gly was assessed by ELISA using an antibody directed to the myc epitope tag within the MTL cDNA construct [8].
as §3
HEK293 cells were transiently cotransfected with cDNAs encoding: the designated CCK receptor subtype, a 5X-SRE-Luc-pest reporter construct (pGL4.33), tethered ligand (as indicated) and a β-galactosidase gene to control for transfection efficiency. Tethered ligand activity was measured 24 hours following transfection. To assess activity of soluble and lipidated CCK4-Gly, cells were stimulated for an additional 4 hours with ligand. […] Data represent the mean ± SEM from 3 independent experiments, each performed in triplicate.

CCK1R = target: T5, CCK1R (Homo sapiens, UniProt P32238); experiment: SRE-luciferase reporter agonist assay in HEK293 cells transfected with CCK1R; settings: HEK293, SRE-Luc; relative to 10 µM s-CCK8-NH2; MTL coexpressed 24 hours, peptides 4 hours
T5 sequence (P32238 1-428): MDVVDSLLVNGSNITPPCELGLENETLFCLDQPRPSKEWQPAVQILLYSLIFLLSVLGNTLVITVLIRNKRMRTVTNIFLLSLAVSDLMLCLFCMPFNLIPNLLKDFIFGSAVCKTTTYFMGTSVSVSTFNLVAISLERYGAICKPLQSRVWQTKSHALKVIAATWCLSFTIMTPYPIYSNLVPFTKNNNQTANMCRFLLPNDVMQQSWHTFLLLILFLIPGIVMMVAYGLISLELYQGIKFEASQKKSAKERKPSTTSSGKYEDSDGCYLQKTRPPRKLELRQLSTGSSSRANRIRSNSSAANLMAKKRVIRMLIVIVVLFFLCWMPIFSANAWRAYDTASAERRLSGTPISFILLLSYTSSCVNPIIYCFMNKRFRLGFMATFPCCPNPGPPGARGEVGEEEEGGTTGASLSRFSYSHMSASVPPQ
Method: Human embryonic kidney cells (HEK293) were maintained at 37°C in a humidified 5% CO2 atmosphere and cultured with Dulbecco’s modified Eagle’s medium (Invitrogen, Chicago, IL) containing 10% fetal bovine serum, 100 U/mL penicillin, and 100 µg/mL streptomycin. Cells were seeded into 96-well plates and grown to ∼80% confluence. […]
The CCK2 receptor was cloned as previously reported [18]; the CCK1R cDNA was PCR amplified based on a published sequence [19]. […] The nucleotide sequences of all receptor and tethered ligand coding regions were confirmed by automated DNA sequencing and analyzed using Vector NTI software (Invitrogen, Chicago, IL). The expression of membrane tethered Substance P, CCK4, and CCK4-Gly was assessed by ELISA using an antibody directed to the myc epitope tag within the MTL cDNA construct [8].
as §5

T2 sequence (P25103 whole entry): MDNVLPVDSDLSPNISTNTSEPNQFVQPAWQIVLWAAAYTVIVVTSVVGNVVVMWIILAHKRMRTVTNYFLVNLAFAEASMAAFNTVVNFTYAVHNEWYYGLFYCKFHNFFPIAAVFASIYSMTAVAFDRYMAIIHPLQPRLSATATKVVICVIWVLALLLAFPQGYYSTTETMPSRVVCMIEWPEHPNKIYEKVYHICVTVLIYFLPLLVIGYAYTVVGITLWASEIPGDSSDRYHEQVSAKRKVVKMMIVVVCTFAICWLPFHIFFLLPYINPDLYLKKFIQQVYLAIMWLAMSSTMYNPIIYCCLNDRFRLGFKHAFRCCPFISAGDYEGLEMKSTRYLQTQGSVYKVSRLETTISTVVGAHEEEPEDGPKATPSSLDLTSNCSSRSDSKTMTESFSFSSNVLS

Q: Which IC50 (CCK2R [1]; agonist 10 µM l-CCK4-Gly-COOH, 4 hours, read-out: IC50 for inhibition of l-CCK4-Gly-COOH induced CCK2R signaling) does the source give for `Cc1cccc(NC(=O)N[C@@H]2N=C(c3ccccc3)c3ccccc3N(CC(=O)c3ccccc3C)C2=O)c1` [YM022, (R)-1-[2,3-dihydro-1-(2′-methylphenacyl)-2-oxo-5-phenyl-1H-1,4-benzodiazepin-3-yl]-3-(3-methylphenyl)urea] here?
A: 10.2 nM

Q: What about the IC50 (CCK2R [1]; agonist 10 µM s-CCK4-Gly-COOH, 4 hours, read-out: IC50 for inhibition of s-CCK4-Gly-COOH induced CCK2R signaling) of the same molecule?
A: 0.84 nM

Q: What about the IC50 (CCK2R [1]; agonist tCCK4-Gly (coexpressed MTL), antagonist added 4 hours after transfection for 20 hours, read-out: IC50 for inhibition of tCCK4-Gly induced CCK2R signaling) of the same molecule?
A: 0.54 nM

Q: `CCCCCCCCCCCCCCCC(=O)NCCOCCOCCOCCOCCOCCOCCOCCOCCC(=O)NCCCC[C@H](NC(C)=O)C(=O)NCC(=O)NCC(=O)N[C@@H](CCCNC(=N)N)C(=O)N1CCC[C@H]1C(=O)N[C@@H](CCCCN)C(=O)N1CCC[C@H]1C(=O)N[C@@H](CCC(N)=O)C(=O)N[C@@H](CCC(N)=O)C(=O)N[C@@H](Cc1ccccc1)C(=O)N[C@@H](Cc1ccccc1)C(=O)NCC(=O)N[C@@H](CC(C)C)C(=O)N[C@@H](CCSC)C(=O)O` [l-SubP-COOH] was tested. Which “NK1R mediated signaling (agonist activity, in words)” value (NK1R [2]; HEK293, SRE-Luc, relative to 1 µM s-SubP-NH2, MTL coexpressed 24 hours, peptides 4 hours) did it give?
A: activated

Q: What about the “NK2R mediated signaling (agonist activity, in words)” value (NK2R) of the same molecule?
A: no signaling was observed

Q: And the EC50 (NK1R [3])?
A: 6.1 nM

Q: And the “NK3R mediated signaling (agonist activity, in words)” value (NK3R)?
A: activated

Q: How did the “NK1R mediated signaling (agonist activity, in words)” value (NK1R [2]) turn out when `CCCCCCCCCCCCCCCC(=O)NCCOCCOCCOCCOCCOCCOCCOCCOCCC(=O)NCCCC[C@H](Nc1ccc([N+](=O)[O-])c2nonc12)C(=O)NCC(=O)NCC(=O)N[C@@H](CCCNC(=N)N)C(=O)N1CCC[C@H]1C(=O)N[C@@H](CCCCN)C(=O)N1CCC[C@H]1C(=O)N[C@@H](CCC(N)=O)C(=O)N[C@@H](CCC(N)=O)C(=O)N[C@@H](Cc1ccccc1)C(=O)N[C@@H](Cc1ccccc1)C(=O)NCC(=O)N[C@@H](CC(C)C)C(=O)N[C@@H](CCSC)C(N)=O` [l-SubP-NH2] was run?
A: fully active

Q: What about the “Potency at NK1R compared with soluble counterpart (in words)” value (NK1R [2]) of the same molecule?
A: more potent than s-SubP-NH2

Q: What about the EC50 (NK1R [3]) of the same molecule?
A: 0.4 nM

Q: How did the EC50 (CCK2R [4]) turn out when WMDFG [s-CCK4-Gly-COOH] was run?
A: > 1000 nM

Q: `CCCCCCCCCCCCCCCC(=O)NCCOCCOCCOCCOCCOCCOCCOCCOCCC(=O)NCC(=O)NCC(=O)N[C@@H](Cc1c[nH]c2ccccc12)C(=O)N[C@@H](CCSC)C(=O)N[C@@H](CC(=O)O)C(=O)N[C@@H](Cc1ccccc1)C(=O)NCC(=O)O` [l-CCK4-Gly-COOH] ({Palmitoyl-PEG8}-GGWMDFG-OH) was tested. Which EC50 (CCK2R [4]) did it give?
A: > 1000 nM

Q: And the “CCK2R mediated signaling (agonist activity, in words)” value (CCK2R [4])?
A: activated

Q: And the “CCK1R mediated signaling (agonist activity, in words)” value (CCK1R)?
A: lacked activity

Q: `CCCCCCCCCCCCCCCC(=O)NCCOCCOCCOCCOCCOCCOCCOCCOCCC(=O)NCC(=O)NCC(=O)N[C@@H](Cc1c[nH]c2ccccc12)C(=O)N[C@@H](CCSC)C(=O)N[C@@H](CC(=O)O)C(=O)N[C@@H](Cc1ccccc1)C(N)=O` [l-CCK4-NH2] ({Palmitoyl-PEG8}-GGWMDF-NH2) was tested. Which EC50 (CCK2R [4]) did it give?
A: 2.6 nM

Q: And the “CCK2R mediated signaling (agonist activity, in words)” value (CCK2R [4])?
A: does not fully activate
